Measured values taken from US9480754B2, “Phospholipid ether analogs as cancer-targeting drug vehicles” (Cellectar Biosciences, Inc., priority 2014, dated 2016).
pIC50: −log10 of the molar value.

Assays:
[1] = test system: human RL-251 tumor xenograft; experiment: Retention of 131I-CLR1404 by RL-251 tumor xenograft; assay type: in vivo, SCID mouse; conditions: FIG. 3
Source text: FIG. 3. Prolonged retention of ^131I-CLR1404 by human RL-251 tumor xenograft in SCID mouse.
CLR1404 is a PLE. Results obtained in a variety of tumor models indicate that CLR1404 is sequestered and selectively retained by cancer cells and cancer stem cells. […] CLR1404 localizes in both primary and metastatic lesions regardless of anatomic location including those found in lymph nodes. See Examples 3-8.

[2] = CLR1404 tumor selectivity across 60 tumor models; assay type: in vivo, rodent; conditions: athymic nude (Hsd:Athymic Nude-Foxn1nu or Crl:NU-Foxn1nu), tumor, intravenous; xenograft, orthotopic, transgenic and spontaneous rodent models; read-out: tumor models showing selective uptake and prolonged retention
Procedure: All described animal studies were performed according to animal protocols approved by the Institutional Animal Care and Use Committee. Female athymic nude mice (Hsd:Athymic Nude-Foxnlnu or Crl:NU-Foxnlnu, Charles River Laboratories) about 4 to 5 weeks of age, 16 to 18 g (n=6), were used for human tumor xenograft studies. Mice were anesthetized with isoflurane and injected subcutaneously with viable tumor cells in 100 μl of Dulbecco's PBS (or, for glioma cells, […] of PBS) into the right flank. Inoculum sizes were 1×10^6 (for renal, ovarian, glioma, pancreatic, prostate, and NSCLC models), […] (for colorectal and uterine models), or 3×10^6 (breast).
Radioiodinated ^124I-CLR1404 was tested in subcutaneous and orthotopic xenografts of 60 different spontaneous, transgenic, human, and rodent malignant cell lines and tumor types. […] Representative examples are of both human (FIG. 5A-5I) and rodent (FIG. 5J-M) tumors.

[3] = test system: non-small cell lung carcinoma (NSCLC); experiment: Clinical imaging of advanced NSCLC patients with 131I-CLR1404; assay type: in vivo, human; conditions: two patients, injection of <1 mCi 131I-CLR1404, gamma imaging
Procedure: To date, two patients with advanced NSCLC were imaged after an injection of <1 mCi of ^131I-CLR1404. Blood and urine samples were collected at predetermined times, and gamma imaging performed at several time points following administration.
Materials and Methods: Following intravenous injection of iodine-131 labeled CLR1404 (1 mCi/20 μg), patients with advanced NSCLC where scanned at 3, 6, 24, 48, 96 h and at 7 and 11 days on a GE Maxxus dual Head SPECT scanner. Blood and urine samples were collected for pharmacokinetic analysis as well as clinical hematologic, renal, and hepatic bioanalysis.

PC-3 (Prostate) = experiment: Cell viability IC50, PC-3; assay type: cell-based
Procedure: The cell lines were then measured for cell viability and reported as IC50 for each treatment.

MDA-MB-468 cells [4] = experiment: Annexin V/PI flow cytometry, MDA-MB-468; assay type: cell-based; conditions: table title 72 hours, text: paclitaxel for 24 hours
Procedure: Debris was eliminated from this analysis.
MDA-MB-468 cells, were also treated with CLR conjugates (CLR1606 and CLR1607) for 72 hours and with geldanamycin (“GEL”) for 48 hours.
CLR conjugates appear to require a longer treatment period with cells to induce cell death.

MDA-MB-468 cells [5] = experiment: Annexin V/PI flow cytometry, MDA-MB-468; assay type: cell-based; conditions: 48 hrs

Structure (SMILES) | time remaining in cancer cells [1] | number of tumor models with selective uptake [2] | tumor uptake and retention in the primary lung tumor [3] | pIC50 (PC-3 (Prostate)) | Live (MDA-MB-468 cells [4]; MDA-MB-468, PTX 100 nM) | Live (MDA-MB-468 cells [4]; MDA-MB-468, PTX 1 uM) | Live (MDA-MB-468 cells [5]; MDA-MB-468, 100 nM) | Live (MDA-MB-468 cells [5]; MDA-MB-468, 1 uM)
C[N+](C)(C)CCOP(=O)([O-])OCCCCCCCCCCCCCCCCCCc1ccc(I)cc1 [CLR1404, 18-(p-Iodophenyl)octadecyl phosphocholine] | up to 20 days | > 55 | significant tumor uptake and retention | – | – | – | – | –
CC(=O)O[C@H]1C(=O)[C@@]2(C)[C@H]([C@H](OC(=O)c3ccccc3)[C@]3(O)C[C@H](OC(=O)[C@H](O)[C@@H](NC(=O)c4ccccc4)c4ccccc4)C(C)=C1C3(C)C)[C@]1(OC(C)=O)CO[C@@H]1C[C@@H]2O [Paclitaxel, paclitaxel, reference compound] | – | – | – | 9.05 | 53.8 % of total cells | 48.9 % of total cells | 77.9 % of total cells | 73.3 % of total cells
